Assays:
[1] = tested on: lipid peroxide production in rat brain homogenates; experiment: Inhibitory action on lipid peroxide production in rat brain homogenates; format: biochemical; settings: 5 v/v % rat brain homogenate, pH 7.4, 1 hour at 37° C.; read-out: Inhibition (IC50) of lipid peroxide production
Description: The male SD rat (12 weeks) brain tissue was extracted under anesthesia after depletion. The extracted brain tissue was used as 5 v/v % homogenate in phosphate buffer (pH 7.4). After incubation of the homogenate for 1 hour at 37° C., the peroxide produced was determined by the thiobarbituric acid method according to the method described in Analytical Biochemistry, 95, 551 (1979).
Before incubation, test compounds were added in 5 v/v % homogenate so that their final concentration becomes 10^-5 M. […]

5-lipoxygenase = target: T1, 5-lipoxygenase (Rattus norvegicus, UniProt P12527); experiment: Inhibition of 5-lipoxygenase (5-HETE production in RBL-1 cells); format: cell-based; settings: for inhibition at 1 µM: 10^-6 M; for inhibition at 0.1 µM: 10^-7 M; for inhibition at 0.01 µM: 10^-8 M
T1 construct: endogenous in cells; host or cells: RBL-1 (rat basophilic leukemia cells)
T1 sequence (P12527 1-673): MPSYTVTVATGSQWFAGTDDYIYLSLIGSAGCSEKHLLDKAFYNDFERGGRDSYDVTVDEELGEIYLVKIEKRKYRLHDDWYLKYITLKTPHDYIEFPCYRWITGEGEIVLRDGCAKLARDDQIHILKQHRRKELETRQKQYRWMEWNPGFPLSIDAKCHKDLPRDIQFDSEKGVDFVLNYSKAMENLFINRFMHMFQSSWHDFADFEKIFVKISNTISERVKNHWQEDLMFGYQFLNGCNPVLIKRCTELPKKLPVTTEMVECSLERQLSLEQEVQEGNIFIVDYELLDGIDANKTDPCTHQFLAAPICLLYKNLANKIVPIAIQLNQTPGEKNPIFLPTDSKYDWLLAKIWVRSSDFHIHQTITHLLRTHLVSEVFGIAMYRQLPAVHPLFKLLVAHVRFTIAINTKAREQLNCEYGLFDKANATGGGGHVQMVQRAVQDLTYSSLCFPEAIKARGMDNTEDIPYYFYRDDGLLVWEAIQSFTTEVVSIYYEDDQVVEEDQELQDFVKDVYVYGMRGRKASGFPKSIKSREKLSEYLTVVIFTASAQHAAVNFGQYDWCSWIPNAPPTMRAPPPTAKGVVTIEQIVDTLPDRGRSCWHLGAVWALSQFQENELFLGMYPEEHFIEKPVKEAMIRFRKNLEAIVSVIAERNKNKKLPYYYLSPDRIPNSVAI
Description: 10^7 RBL-1 cells (rat basophilic leukemia cells) were suspended in 0.5 ml of MCM (mast cell medium). […] Then 4 ml of ethanol was added, and the mixture was well shaken and kept at room temperature for 10 min.
The mixture was centrifuged for 10 min. (2000 rpm), and the supernatant was separated. The supernatant obtained was concentrated to dryness under reduced pressure. To the residue 0.5 ml of 60 v/v % aqueous methanol was added. One hundred μl of this solution was subjected to high performance liquid chromatography for quantitative analysis of 5-HETE (5-hydroxyeicosatetraenoic acid). The amount of 5-HETE was determined by measurement of the absorbance at 237 nm with a UV absorption monitor.
The inhibitory effect (IE) of production of 5-HETE is expressed by (1-b/a)×100, wherein a is the peak height or the area corrected with the peak due to the internal standard in the absence of the compound (I) or a pharmaceutically acceptable salt thereof, and b is the peak height or peak area corrected with the peak due to the internal standard in the presence of the compound (I) or a pharmaceutically acceptable salt thereof.

[2] = tested on: generation of HHT in rat platelets; experiment: Inhibitory effect on the generation of 12-hydroxyheptadeca-5,8,10-trienoic acid (HHT) in rat platelets; format: cell-based; settings: rat platelet rich plasma; for inhibition at 100 µM: 10^-4 M; for inhibition at 10 µM: 10^-5 M
Description: Blood was collected in 3.2 v/v % sodium citrate (0.8 ml for 7.2 ml of blood) from the abdominal aorta of male Wister rats (Jcl, 12 to 15 weeks) anesthesized with pentobarbital. Platelet rich plasma (PRP) was obtained by centrifuging the blood at 800 rpm for 10 min at room temperature. Platelet poor plasma (PPP) was prepared by centrifuging the remaining blood at 3,000 rpm for 10 min. The platelet concentration of PRP was adjusted to 1,000,000/μl with PPP. […]
The reaction was stopped by adding 100 ml of ethanol and the mixture was allowed to stand for 10 min. at room temperature. The reaction mixture was centrifuged at 2,000 rpm for 10 min. and the supernatant obtained was evaporated. To the concentrate, 0.2 ml of 60 v/v % aqueous ethanol was added.
100 μl of this solution was subjected to high performance liquid chromatography for quantitative analysis of HHT. The amount of HHT was determined by measurement of absorbance at 237 nm with a UV absorption monitor.
The inhibitory effect (IE) on the generation of HHT is expressed by (1-b/a)×100, wherein a is the peak height or the peak area corrected with the peak due to the internal standard in the absence of the compound (I) or a pharmaceutically acceptable salt thereof, and b is the peak height or the peak area corrected with the peak due to the internal standard in the compound (I) or a pharmaceutically acceptable salt thereof.

Row | IC50 [1] [nM] | inhibition at 1 µM (5-lipoxygenase) [%] | inhibition at 0.1 µM (5-lipoxygenase) [%] | inhibition at 0.01 µM (5-lipoxygenase) [%] | Structure (SMILES) | inhibition at 100 µM [2] [%] | inhibition at 10 µM [2] [%]
1 | 220 | 89 | 57 | 16 | Cc1c(C)c2c(c(C)c1O)C(c1cccnc1)C(C)(C)O2 (stereo not drawn) [Example 1, 5-hydroxy-2,2,4,6,7-pentamethyl-3-(3-pyridyl)-2,3-dihydrobenzofuran] | 76 | 47
2 | 150 | 91 | 64 | 20 | Cc1c(C)c2c(c(C)c1O)C(c1cccnc1)C1(CCCCC1)O2 (stereo not drawn) [Example 3, 5-hydroxy-4,6,7-trimethyl-3-(3-pyridyl)-3H-benzofuran-2-spirocyclohexane] | 40 | 7
3 | 120 | 99 | 22 | 0 | Cc1c2c(c3ccccc3c1O)OC(C)(C)C2c1cccnc1 (stereo not drawn) [Example 5] | 84 | 54
4 | 250 | 98 | 18 | 0 | Cc1c(C)c2c(c(C)c1O)C(c1ccccn1)C(C)(C)O2 (stereo not drawn) [Example 4] | 29 | 9
5 | 750 | 91 | 70 | 18 | Cc1c(C)c2c(c(C)c1O)C(c1cccnc1)C1(CCCC1)O2 (stereo not drawn) [Example 2] | 79 | 52
6 | 130 | 92 | 18 | 0 | Cc1c(C)c2c(c(C)c1O)C(c1ccccc1)C(C)(C)O2 (stereo not drawn) [Example 6, 5-hydroxy-2,2,4,6,7-pentamethyl-3-phenyl-2,3-dihydrobenzofuran] | 49 | 7
